In patent US20230067929A1, “HETEROCYCLIC DERIVATIVES, PHARMACEUTICAL COMPOSITIONS AND THEIR USE IN THE TREATMENT, AMELIORATION OR PREVENTION OF CANCER” (Tolremo Therapeutics AG, priority 2018, published 2023) one finds EC50 data, which are given here for 63 compounds.

In general, EC50 refers to the concentration giving half of the maximal effect.

This assay has as its system A375 cells. As to the kind of experiment: A375 cell immunofluorescence assay (with 1 μM S1152 and 0.5 μM S1008), EC50. The format is cell-based. The note with it: 1 μM S1152 + 0.5 μM S1008, one day, ratio FL2/FL3 staining (sc-365823 antibody). The method, then: One thousand four hundred A375 cells were seeded in each well of a 384 well microplate. One day later they were treated with 1 μM S1152 (Selleckchem) in dimethyl sulfoxide, 0.5 μM S1008 (Selleckchem) and dose ranges of invention compounds for one day in Dulbecco's Modified Eagle's Medium supplemented with 10% fetal calf serum and 2 mM (2S)-2-amino-4-carbamoylbutanoic acid. Wells were incubated with 4% polyoxymethylene (Sigma Aldrich 158127) at ambient temperature. After ten minutes, polyoxymethylene was replaced with phosphate-buffered saline. After one minute phosphate-buffered saline was replaced with 0.2% polyethylene glycol octylphenyl ether in phosphate-buffered saline. After ten minutes at ambient temperature 0.2% polyethylene glycol octylphenyl ether in phosphate-buffered saline was replaced with 1% aminoethanoic acid in phosphate-buffered saline. […] After one hour at 37° C., the solution was replaced with phosphate-buffered saline twice. Phosphate-buffered saline was replaced with 2 μg/ml A-11029 (Invitrogen) in 0.05% polyoxyethylene (20) sorbitan monolaurate in phosphate-buffered saline. […] After one hour at ambient temperature in the dark, signal in wells was measured with a Acumen Cellista. 3,8-Diamino-5-[3-(diethylmethylammonio)propyl]-6-phenylphenanthridinium diiodide-positive objects were defined in FL3 (565-600 nm) with a perimeter between 50-800 μm and a total intensity of 10000-1000000 FLU. Signal in FL2 (500-530 nm) was measured in defined objects. A normalized ratio of total ln FL2 over total ln FL3 staining was log transformed. A non-linear regression (variable slope, 4 parameters) was used to calculate EC50 values using GraphPad Prism (Version 7.0d).
In the case of `CCC(=O)N1CCCC(c2nc(Cl)cc(Nc3cccc(F)c3)n2)C1` (stereo not drawn), the EC50 was greater than 10 µM.

For `CCC(=O)N1CCCC(c2nc(Nc3cccc(F)c3)cc(-c3cccc(O)c3)n2)C1` (stereo not drawn), the EC50 lay within 1 to 10 µM.

As for `CCC(=O)N1CCCC(c2nc(Nc3ccccc3F)cc(-c3ccncc3)n2)C1` (stereo not drawn), the EC50 was greater than 10 µM. In the case of `CCC(=O)N1CCCC(c2nc(Nc3cccc(F)c3)cc(-c3cnc(N)nc3)n2)C1` (stereo not drawn) it was greater than 10 µM. For the compound `CCC(=O)N1CCCC(c2nc(Nc3ccccc3F)cc(-c3cccnc3)n2)C1` (stereo not drawn), the EC50 lay in the range of 1 to 10 µM.

`CCC(=O)N1CCCC(c2nc(Nc3cccc(F)c3)cc(-c3cnc(NC)nc3)n2)C1` (stereo not drawn): the EC50 is greater than 10 µM. In the case of `CCC(=O)N1CCCC(c2nc(Nc3cccc(OC)c3)cc(-c3cccnc3)n2)C1` (stereo not drawn) it was 1 to 10 µM.

Take `CC(=O)N1CCCC(c2nc(Nc3ccccc3)cc(-c3cncc4[nH]ccc34)n2)C1` (stereo not drawn): the concentration for a half-maximal effect (EC50) was less than 1 µM. The result for `CC(=O)Nc1cncc(-c2cc(Nc3cccc(F)c3)nc(C3CCCN(C(C)=O)C3)n2)c1` (stereo not drawn) reads less than 1 µM; that for `CC(=O)N1CCCC(c2nc(Nc3ccccc3)cc(-c3cccnc3)n2)C1` (stereo not drawn), 1 to 10 µM; that for `CC(=O)N1CCCC(c2nc(Nc3cccc(F)c3)cc(-c3cnc4[nH]ccc4c3)n2)C1` (stereo not drawn), 1 to 10 µM. `CC(=O)Nc1ccc(-c2cc(Nc3cccc(F)c3)nc(C3CCCN(C(C)=O)C3)n2)cn1` (stereo not drawn): the EC50 is 1 to 10 µM. Consider `CC(=O)N1C[C@H](c2nc(Nc3ccccc3)cc(-c3cncnc3)n2)CC[C@@H]1C`, for which the EC50 is less than 1 µM. The result for `CC(=O)N1C[C@H](c2nc(Nc3ccccc3)cc(-c3cncc4[nH]ccc34)n2)CC[C@@H]1C` reads less than 1 µM; that for `CNC(=O)c1cncc(-c2cc(Nc3cccc(F)c3)nc(C3CCCN(C(C)=O)C3)n2)c1` (stereo not drawn), less than 1 µM; that for `COc1cncc(-c2cc(Nc3cccc(Cl)c3)nc([C@@H]3CC[C@H](C)N(C(C)=O)C3)n2)c1`, less than 1 µM.

For `CCC(=O)N1CCCC(c2nc(Nc3ccc(C)cc3)cc(-c3cccnc3)n2)C1` (stereo not drawn), the EC50 was in the range of 1 to 10 µM.

Take `CCC(=O)N1CCCC(c2nc(Nc3ccc(OC)nc3)cc(-c3cccnc3)n2)C1` (stereo not drawn): the EC50 was greater than 10 µM. `CCC(=O)N1CCCC(c2nc(Nc3ccccc3OC)cc(-c3cccnc3)n2)C1` (stereo not drawn): the EC50 is greater than 10 µM. The result for `CCC(=O)N1CCCC(c2nc(Nc3ncccn3)cc(-c3cccnc3)n2)C1` (stereo not drawn) reads greater than 10 µM.

Take `CCC(=O)N1CCCC(c2nc(Nc3ccc(F)cc3)cc(-c3cccnc3)n2)C1` (stereo not drawn): the EC50 was greater than 10 µM. In the case of `CCC(=O)N1CCCC(c2nc(Nc3cccc(C(F)(F)F)c3)cc(-c3cccnc3)n2)C1` (stereo not drawn) it was greater than 10 µM.

In the case of `CCC(=O)N1CCCC(c2nc(Nc3cccc(C)c3)cc(-c3cccnc3)n2)C1` (stereo not drawn), the EC50 was 1 to 10 µM.

As to `CCC(=O)N1CCCC(c2nc(Nc3ccc(OC)cc3)cc(-c3cccnc3)n2)C1` (stereo not drawn), the EC50 lay in the range of 1 to 10 µM. For the compound `CCC(=O)N1CCCC(c2nc(Nc3ccc(Cl)cc3)cc(-c3cccnc3)n2)C1` (stereo not drawn), the half-maximal effective concentration (EC50) was 1 to 10 µM.

On to `CCc1cccc(Nc2cc(-c3cncc(OC)c3)nc(C3CCCN(C(C)=O)C3)n2)c1` (stereo not drawn), for which the 50% effective concentration (EC50) was 1 to 10 µM. Take `COc1cncc(-c2cc(Nc3cccc(C(F)F)c3)nc(C3CCCN(C(C)=O)C3)n2)c1` (stereo not drawn): the EC50 lay within 1 to 10 µM.

On to `COc1cncc(-c2cc(Nc3cccc(-n4cnnc4)c3)nc(C3CCCN(C(C)=O)C3)n2)c1` (stereo not drawn), for which the EC50 is greater than 10 µM.

On to `CC(=O)N1CCCC(c2nc(Nc3cncc(C)c3)cc(-c3cccnc3)n2)C1` (stereo not drawn), for which the EC50 lay in the range of 1 to 10 µM. In the case of `CC(=O)N1CCCC(c2nc(Nc3ncccn3)cc(-c3cccnc3)n2)C1` (stereo not drawn) it was greater than 10 µM; in that of `COc1cncc(-c2cc(Nc3cncc(C)c3)nc([C@@H]3CC[C@H](C)N(C(C)=O)C3)n2)c1`, less than 1 µM; in that of `CCC(=O)N1CCCC(c2nc(Nc3cccc(Cl)c3)cc(-c3cccnc3)n2)C1` (stereo not drawn), 1 to 10 µM. In the case of `CCC(=O)N1CCCC(c2nc(Nc3ccccc3)cc(-c3cccnc3)n2)C1` (stereo not drawn) it was 1 to 10 µM; in that of `CCC(=O)N1CCCC(c2nc(Nc3ccc(O)nc3)cc(-c3cccnc3)n2)C1` (stereo not drawn), greater than 10 µM; in that of `CCC(=O)N1CCCC(c2nc(Nc3ccccc3Cl)cc(-c3cccnc3)n2)C1` (stereo not drawn), 1 to 10 µM.

With `CCC(=O)N1CCCC(c2nc(Nc3cc(F)cc(F)c3)cc(-c3cccnc3)n2)C1` (stereo not drawn), the EC50 lay within 1 to 10 µM. Turning to `CCC(=O)N1CCCC(c2nc(Nc3cc(OC)cc(OC)c3)cc(-c3cccnc3)n2)C1` (stereo not drawn), the EC50 was in the range of 1 to 10 µM. In the case of `COC(=O)N1CCCC(c2nc(Nc3cccc(F)c3)cc(-c3cccnc3)n2)C1` (stereo not drawn), the EC50 fell in the range of 1 to 10 µM. On to `Fc1cccc(Nc2cc(-c3cccnc3)nc(C3CCCNC3)n2)c1` (stereo not drawn), for which the EC50 is greater than 10 µM.

As for `CC(=O)N1CCCC(c2nc(Nc3cccc(F)c3)cc(-c3cccnc3)n2)C1` (stereo not drawn), the EC50 is less than 1 µM. In the case of `O=C(N1CCCC(c2nc(Nc3cccc(F)c3)cc(-c3cccnc3)n2)C1)C(F)(F)F` (stereo not drawn) it was greater than 10 µM. Consider `CC(=O)N1CCCC(c2nc(Nc3cccc(F)c3)cc(-c3ccccc3)n2)C1` (stereo not drawn), for which the EC50 is 1 to 10 µM. The result for `COc1cncc(-c2cc(Nc3cccc(F)c3)nc(C3CCCN(C(C)=O)C3)n2)c1` (stereo not drawn) reads less than 1 µM.

Turning to `CC(=O)N1CCCC(c2nc(Nc3cccc(F)c3)cc(-c3cncc(C)c3)n2)C1` (stereo not drawn), the EC50 was less than 1 µM. In the case of `CC(=O)N1CCCC(c2nc(Nc3cccc(F)c3)cc(-c3cncc(C(F)F)c3)n2)C1` (stereo not drawn) it was less than 1 µM. In the case of `O=C(C1CC1)N1CCCC(c2nc(Nc3cccc(F)c3)cc(-c3cccnc3)n2)C1` (stereo not drawn) it was 1 to 10 µM; in that of `CC(C)C(=O)N1CCCC(c2nc(Nc3cccc(F)c3)cc(-c3cccnc3)n2)C1` (stereo not drawn), greater than 10 µM. The result for `[2H]C([2H])([2H])C(=O)N1CCCC(c2nc(Nc3cccc(F)c3)cc(-c3cccnc3)n2)C1` (stereo not drawn) reads less than 1 µM.

Regarding `O=C(CC(F)(F)F)N1CCCC(c2nc(Nc3cccc(F)c3)cc(-c3cccnc3)n2)C1` (stereo not drawn), the EC50 is greater than 10 µM.

Take `CC(F)(F)C(=O)N1CCCC(c2nc(Nc3cccc(F)c3)cc(-c3cccnc3)n2)C1` (stereo not drawn): the EC50 is greater than 10 µM. Regarding `O=C(C(F)F)N1CCCC(c2nc(Nc3cccc(F)c3)cc(-c3cccnc3)n2)C1` (stereo not drawn), the 50% effective concentration (EC50) is greater than 10 µM. The result for `O=CN1CCCC(c2nc(Nc3cccc(F)c3)cc(-c3cccnc3)n2)C1` (stereo not drawn) reads greater than 10 µM; that for `COCCOCCOCC(=O)N1CCCC(c2nc(Nc3cccc(F)c3)cc(-c3cccnc3)n2)C1` (stereo not drawn), greater than 10 µM. The result for `CCC(=O)N1CCCC(c2nc(Nc3cccc(F)c3)cc(NC3CC3)n2)C1` (stereo not drawn) reads greater than 10 µM. `CCC(=O)N1CCCC(c2nc(Nc3cccc(F)c3)cc(Nc3cccc(F)c3)n2)C1` (stereo not drawn): the EC50 was greater than 10 µM. The result for `CCC(=O)N1CCCC(c2nc(Nc3cccc(F)c3)cc(Nc3ncccn3)n2)C1` (stereo not drawn) reads 1 to 10 µM; that for `CCC(=O)N1CCCC(c2nc(Nc3cccc(F)c3)cc(NC3CCC3)n2)C1` (stereo not drawn), greater than 10 µM. In the case of `CCC(=O)N1CCCC(c2nc(Nc3cccc(F)c3)cc(Nc3cnccn3)n2)C1` (stereo not drawn) it was greater than 10 µM; in that of `CCC(=O)N1CCCC(c2nc(Nc3cccc(F)c3)cc(NC3CCCCC3)n2)C1` (stereo not drawn), greater than 10 µM. In the case of `CCC(=O)N1CCCC(c2nc(Nc3cccc(F)c3)cc(NC3CCOC3)n2)C1` (stereo not drawn) it was greater than 10 µM. Turning to `CC(=O)N1CCCC(c2nc(Nc3cccc(F)c3)cc(Nc3ncccn3)n2)C1` (stereo not drawn), the EC50 is less than 1 µM. The result for `CC(=O)N1CCCC(c2nc(Nc3cccc(F)c3)cc(Nc3ccccn3)n2)C1` (stereo not drawn) reads 1 to 10 µM; that for `CC(=O)N1CCCC(c2nc(Nc3ccncc3)cc(Nc3cccc(F)c3)n2)C1` (stereo not drawn), greater than 10 µM.
